Measured values as given in ChEMBL document CHEMBL5608242 (J Med Chem, 2024).

Assays:
[1] = biological target: T1, Protein deacetylase HDAC6 (Homo sapiens, UniProt Q9UBN7); experiment: biochemical
T1 sequence (Q9UBN7 whole entry): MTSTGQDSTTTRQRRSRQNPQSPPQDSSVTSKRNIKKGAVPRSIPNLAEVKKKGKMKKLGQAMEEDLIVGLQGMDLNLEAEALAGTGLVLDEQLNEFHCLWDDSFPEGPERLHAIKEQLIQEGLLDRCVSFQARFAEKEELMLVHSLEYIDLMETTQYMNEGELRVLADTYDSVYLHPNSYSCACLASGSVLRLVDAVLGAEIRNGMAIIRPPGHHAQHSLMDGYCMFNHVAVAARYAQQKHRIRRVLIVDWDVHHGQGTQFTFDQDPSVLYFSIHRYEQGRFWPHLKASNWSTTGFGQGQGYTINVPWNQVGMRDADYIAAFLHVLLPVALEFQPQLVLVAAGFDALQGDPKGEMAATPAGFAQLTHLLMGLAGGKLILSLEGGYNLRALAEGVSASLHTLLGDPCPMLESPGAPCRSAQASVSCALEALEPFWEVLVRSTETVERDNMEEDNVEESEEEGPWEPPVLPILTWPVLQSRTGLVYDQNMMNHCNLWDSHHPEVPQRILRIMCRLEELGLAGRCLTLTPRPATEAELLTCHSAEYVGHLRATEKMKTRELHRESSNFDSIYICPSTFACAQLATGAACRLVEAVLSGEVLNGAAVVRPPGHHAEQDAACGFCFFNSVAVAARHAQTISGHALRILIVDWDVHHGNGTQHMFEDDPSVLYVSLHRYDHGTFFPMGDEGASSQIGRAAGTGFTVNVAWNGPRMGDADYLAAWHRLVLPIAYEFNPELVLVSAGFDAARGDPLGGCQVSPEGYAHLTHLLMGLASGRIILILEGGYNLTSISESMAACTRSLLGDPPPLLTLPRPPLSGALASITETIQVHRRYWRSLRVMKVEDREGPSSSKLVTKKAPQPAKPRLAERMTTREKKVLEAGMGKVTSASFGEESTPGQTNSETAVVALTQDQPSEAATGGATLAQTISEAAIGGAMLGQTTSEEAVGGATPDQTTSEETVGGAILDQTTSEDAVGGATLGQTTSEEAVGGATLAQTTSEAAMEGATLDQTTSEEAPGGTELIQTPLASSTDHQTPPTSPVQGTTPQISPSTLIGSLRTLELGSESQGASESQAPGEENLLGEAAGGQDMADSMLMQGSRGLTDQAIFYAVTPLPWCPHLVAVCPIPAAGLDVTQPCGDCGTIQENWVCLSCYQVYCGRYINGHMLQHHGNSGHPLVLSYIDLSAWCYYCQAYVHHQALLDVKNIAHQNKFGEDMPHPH

Histone deacetylase 1 [2] = biological target: T2, Histone deacetylase 1 (Homo sapiens, UniProt Q13547); experiment: biochemical
T2 sequence (Q13547 whole entry): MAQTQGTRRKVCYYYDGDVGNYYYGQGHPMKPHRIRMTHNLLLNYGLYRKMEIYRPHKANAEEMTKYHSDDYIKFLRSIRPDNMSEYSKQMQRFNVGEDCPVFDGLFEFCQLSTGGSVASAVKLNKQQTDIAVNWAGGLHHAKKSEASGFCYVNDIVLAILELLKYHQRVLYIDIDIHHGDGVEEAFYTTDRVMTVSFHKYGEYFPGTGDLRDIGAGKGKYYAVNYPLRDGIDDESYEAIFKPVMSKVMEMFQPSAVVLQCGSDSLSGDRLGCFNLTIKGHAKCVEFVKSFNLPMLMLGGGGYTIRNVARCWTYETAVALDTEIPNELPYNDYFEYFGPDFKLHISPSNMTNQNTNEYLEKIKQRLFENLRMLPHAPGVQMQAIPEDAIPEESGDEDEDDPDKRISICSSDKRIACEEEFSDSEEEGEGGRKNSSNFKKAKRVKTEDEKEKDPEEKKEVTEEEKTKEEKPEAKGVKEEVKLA

[3] = biological target: Histone deacetylase 3/Nuclear receptor corepressor 2 (HDAC3/NCoR2) (Homo sapiens, UniProt O15379); experiment: biochemical
Histone deacetylase 3/Nuclear receptor corepressor 2 (HDAC3/NCoR2), sequence (O15379 whole entry): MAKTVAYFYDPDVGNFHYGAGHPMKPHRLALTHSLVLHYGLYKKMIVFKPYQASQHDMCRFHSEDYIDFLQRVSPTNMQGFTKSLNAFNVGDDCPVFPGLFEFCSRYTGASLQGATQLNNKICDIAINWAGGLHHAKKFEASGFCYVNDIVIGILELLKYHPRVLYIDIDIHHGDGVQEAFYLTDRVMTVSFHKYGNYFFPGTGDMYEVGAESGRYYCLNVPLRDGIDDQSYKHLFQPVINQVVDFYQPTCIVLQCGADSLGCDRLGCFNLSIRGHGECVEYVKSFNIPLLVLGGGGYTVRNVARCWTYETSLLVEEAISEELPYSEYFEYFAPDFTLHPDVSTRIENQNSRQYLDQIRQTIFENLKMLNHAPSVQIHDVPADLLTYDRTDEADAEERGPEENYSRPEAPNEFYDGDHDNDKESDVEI
Histone deacetylase 3/Nuclear receptor corepressor 2 (HDAC3/NCoR2), sequence (Q9Y618 whole entry, further chain): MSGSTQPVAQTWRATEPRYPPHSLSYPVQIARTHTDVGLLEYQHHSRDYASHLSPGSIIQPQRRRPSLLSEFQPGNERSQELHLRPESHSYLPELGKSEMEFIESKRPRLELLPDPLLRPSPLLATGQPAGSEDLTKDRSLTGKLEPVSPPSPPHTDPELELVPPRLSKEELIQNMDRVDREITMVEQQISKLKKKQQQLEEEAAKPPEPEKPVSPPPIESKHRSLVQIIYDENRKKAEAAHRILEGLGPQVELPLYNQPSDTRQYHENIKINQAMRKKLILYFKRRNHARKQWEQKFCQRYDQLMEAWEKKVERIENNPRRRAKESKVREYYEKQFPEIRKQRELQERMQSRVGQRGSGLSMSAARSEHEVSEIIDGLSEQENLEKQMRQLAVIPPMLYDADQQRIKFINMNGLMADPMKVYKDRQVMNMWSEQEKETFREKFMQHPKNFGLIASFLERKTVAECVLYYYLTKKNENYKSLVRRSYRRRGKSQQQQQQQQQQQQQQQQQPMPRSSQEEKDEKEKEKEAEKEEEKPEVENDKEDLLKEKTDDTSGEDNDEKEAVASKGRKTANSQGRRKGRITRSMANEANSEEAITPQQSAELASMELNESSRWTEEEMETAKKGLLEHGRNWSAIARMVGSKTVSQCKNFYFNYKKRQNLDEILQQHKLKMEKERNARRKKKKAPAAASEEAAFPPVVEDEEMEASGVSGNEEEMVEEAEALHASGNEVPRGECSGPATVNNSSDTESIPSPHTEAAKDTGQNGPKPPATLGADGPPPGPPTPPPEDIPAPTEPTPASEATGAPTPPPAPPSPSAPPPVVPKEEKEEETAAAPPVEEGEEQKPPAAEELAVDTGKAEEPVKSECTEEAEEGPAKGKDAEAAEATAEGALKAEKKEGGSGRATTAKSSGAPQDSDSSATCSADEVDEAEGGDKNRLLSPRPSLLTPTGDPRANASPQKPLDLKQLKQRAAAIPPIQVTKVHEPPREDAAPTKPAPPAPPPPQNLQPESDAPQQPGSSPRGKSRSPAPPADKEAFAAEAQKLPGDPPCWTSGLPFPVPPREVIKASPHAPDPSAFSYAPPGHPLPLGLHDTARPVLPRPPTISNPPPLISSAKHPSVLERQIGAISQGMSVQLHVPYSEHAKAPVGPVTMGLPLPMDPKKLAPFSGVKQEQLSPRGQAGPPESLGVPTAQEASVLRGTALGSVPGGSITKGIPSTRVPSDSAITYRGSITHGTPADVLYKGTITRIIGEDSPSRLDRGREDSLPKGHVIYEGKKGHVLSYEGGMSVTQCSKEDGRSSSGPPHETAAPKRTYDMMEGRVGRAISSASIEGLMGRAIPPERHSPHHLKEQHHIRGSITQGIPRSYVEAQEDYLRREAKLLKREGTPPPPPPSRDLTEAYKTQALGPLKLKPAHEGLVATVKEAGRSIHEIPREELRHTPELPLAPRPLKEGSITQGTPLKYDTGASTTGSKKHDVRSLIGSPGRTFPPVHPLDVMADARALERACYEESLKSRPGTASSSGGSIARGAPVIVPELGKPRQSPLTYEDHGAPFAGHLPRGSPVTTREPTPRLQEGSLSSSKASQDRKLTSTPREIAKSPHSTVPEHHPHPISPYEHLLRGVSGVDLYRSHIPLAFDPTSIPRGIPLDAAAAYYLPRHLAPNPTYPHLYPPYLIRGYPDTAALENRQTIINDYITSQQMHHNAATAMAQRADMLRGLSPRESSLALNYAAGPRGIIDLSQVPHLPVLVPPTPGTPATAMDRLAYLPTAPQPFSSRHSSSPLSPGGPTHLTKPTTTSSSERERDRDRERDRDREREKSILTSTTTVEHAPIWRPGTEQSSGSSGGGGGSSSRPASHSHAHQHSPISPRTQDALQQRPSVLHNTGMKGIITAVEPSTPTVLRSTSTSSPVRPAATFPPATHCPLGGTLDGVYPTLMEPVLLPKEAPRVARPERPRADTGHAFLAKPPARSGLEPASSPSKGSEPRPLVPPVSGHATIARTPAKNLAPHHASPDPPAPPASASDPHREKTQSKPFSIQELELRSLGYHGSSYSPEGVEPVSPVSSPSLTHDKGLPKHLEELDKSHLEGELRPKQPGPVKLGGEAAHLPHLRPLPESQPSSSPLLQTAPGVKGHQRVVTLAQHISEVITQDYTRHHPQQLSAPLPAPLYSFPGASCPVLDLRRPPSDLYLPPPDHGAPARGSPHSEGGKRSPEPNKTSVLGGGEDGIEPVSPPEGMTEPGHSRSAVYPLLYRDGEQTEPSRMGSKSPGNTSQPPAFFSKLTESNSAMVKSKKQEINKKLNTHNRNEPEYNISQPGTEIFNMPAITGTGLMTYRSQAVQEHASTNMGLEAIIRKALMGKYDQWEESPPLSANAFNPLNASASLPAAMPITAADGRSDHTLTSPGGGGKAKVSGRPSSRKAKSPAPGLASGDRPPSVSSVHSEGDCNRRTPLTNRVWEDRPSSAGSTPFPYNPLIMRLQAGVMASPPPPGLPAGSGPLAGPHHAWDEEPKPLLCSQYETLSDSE

[4] = biological target: T3, Amine oxidase [flavin-containing] B (Homo sapiens, UniProt P27338); conditions: read-out: INH
T3 sequence (P27338 whole entry): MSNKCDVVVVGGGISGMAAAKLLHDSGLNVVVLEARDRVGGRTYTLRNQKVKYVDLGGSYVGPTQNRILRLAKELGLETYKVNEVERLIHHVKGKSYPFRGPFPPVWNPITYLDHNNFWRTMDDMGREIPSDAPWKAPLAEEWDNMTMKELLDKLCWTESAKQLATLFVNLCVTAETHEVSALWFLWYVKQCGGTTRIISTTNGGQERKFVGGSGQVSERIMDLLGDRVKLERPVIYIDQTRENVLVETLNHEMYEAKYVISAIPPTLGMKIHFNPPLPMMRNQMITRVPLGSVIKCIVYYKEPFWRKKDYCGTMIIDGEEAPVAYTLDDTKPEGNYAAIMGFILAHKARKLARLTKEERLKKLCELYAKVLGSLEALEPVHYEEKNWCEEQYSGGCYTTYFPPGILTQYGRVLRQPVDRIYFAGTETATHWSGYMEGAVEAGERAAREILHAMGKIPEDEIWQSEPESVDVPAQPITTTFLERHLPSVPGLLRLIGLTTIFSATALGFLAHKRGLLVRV
Description: Inhibition of human recombinant MAO-B using para-tyramine as substrate at 1 uM by Amplex Red fluorimetric assay relative to control

Histone deacetylase 2 = Histone deacetylase 2 (Homo sapiens, UniProt Q92769); experiment: biochemical
Histone deacetylase 2, sequence (Q92769 whole entry): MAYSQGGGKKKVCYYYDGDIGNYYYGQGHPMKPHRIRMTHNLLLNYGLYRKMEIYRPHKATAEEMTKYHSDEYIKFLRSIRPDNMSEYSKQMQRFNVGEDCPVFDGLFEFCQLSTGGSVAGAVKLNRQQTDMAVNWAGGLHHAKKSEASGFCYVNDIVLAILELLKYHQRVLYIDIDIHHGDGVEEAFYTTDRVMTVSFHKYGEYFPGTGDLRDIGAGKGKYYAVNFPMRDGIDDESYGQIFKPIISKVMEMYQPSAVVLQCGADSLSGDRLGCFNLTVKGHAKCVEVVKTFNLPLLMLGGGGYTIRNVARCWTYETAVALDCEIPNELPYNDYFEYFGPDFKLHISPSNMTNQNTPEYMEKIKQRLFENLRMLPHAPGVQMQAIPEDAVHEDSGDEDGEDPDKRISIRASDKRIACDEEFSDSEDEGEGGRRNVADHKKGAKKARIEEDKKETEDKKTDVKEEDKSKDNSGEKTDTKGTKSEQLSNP

Histone deacetylase 1 [5] = biological target: T2, Histone deacetylase 1; experiment: biochemical; remark: listed apart in the source
Cholinesterase = Cholinesterase (Equus caballus, UniProt P81908)
Cholinesterase, sequence (P81908 whole entry): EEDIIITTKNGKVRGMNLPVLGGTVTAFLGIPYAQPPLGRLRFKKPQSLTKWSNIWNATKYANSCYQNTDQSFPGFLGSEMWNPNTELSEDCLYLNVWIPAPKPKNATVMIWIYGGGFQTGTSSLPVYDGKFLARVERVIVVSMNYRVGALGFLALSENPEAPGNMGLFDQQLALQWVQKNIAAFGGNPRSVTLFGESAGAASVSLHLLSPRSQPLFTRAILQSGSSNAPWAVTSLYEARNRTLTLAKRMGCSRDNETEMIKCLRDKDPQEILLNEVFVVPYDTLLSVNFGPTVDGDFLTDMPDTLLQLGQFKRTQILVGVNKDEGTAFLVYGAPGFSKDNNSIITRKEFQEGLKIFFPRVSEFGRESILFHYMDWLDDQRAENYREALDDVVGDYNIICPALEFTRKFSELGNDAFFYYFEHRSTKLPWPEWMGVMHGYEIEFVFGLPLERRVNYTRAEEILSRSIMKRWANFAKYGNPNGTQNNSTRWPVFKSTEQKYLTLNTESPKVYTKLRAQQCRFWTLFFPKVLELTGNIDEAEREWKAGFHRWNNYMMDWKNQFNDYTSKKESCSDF

IC50 [1]	IC50 (Histone deacetylase 1 [5])	SMILES	also measured
> 10 µM		C#CCN(C)Cc1cc2cc(OCCCN3CCCCC3)ccc2n1C	IC50 (Histone deacetylase 1 [2]): > 10 µM; IC50 [3]: > 10 µM
0.168 µM		COc1ccc2c(ccn2S(=O)(=O)c2ccc(C(=O)NO)cc2)c1	
		C#CCN1CCN(CCCOc2ccc3c(ccn3S(=O)(=O)c3ccc(C(=O)NO)cc3)c2)CC1	inhibition at 1 µM [4]: 28%; IC50 (Histone deacetylase 2): 5.41 µM; IC50 [3]: 2.71 µM
	0.735 µM	O=C(NO)c1ccc(S(=O)(=O)n2ccc3cc(OCCCN4CCCCC4)ccc32)cc1	inhibition at 1 µM [4]: < 10%; IC50 (Histone deacetylase 2): 1.92 µM; IC50 [3]: 0.937 µM
> 3.33 µM		C#CCN1CCN(CCCOc2ccc3c(ccn3S(=O)(=O)c3ccc(C(=O)Nc4ccccc4N)cc3)c2)CC1	
	3.99 µM	O=C(NO)c1ccc(S(=O)(=O)n2ccc3cc(OCc4ccccc4)ccc32)cc1	
> 10 µM		CCCNNC(=O)c1ccc(S(=O)(=O)n2ccc3cc(OCCCN4CCCCC4)ccc32)cc1	inhibition at 1 µM [4]: < 10%
> 10 µM	> 10 µM	NNC(=O)c1ccc(S(=O)(=O)n2ccc3cc(OCCCN4CCCCC4)ccc32)cc1	
> 10 µM		Nc1ccccc1NC(=O)c1ccc(S(=O)(=O)n2ccc3cc(OCc4ccccc4)ccc32)cc1	
> 10 µM		CCCN(CCC)NC(=O)c1ccc(S(=O)(=O)n2ccc3cc(OC)ccc32)cc1	IC50 (Histone deacetylase 1 [2]): > 10 µM
> 10 µM	> 10 µM	C#CCN1CCN(CCCOc2ccc3c(ccn3S(=O)(=O)c3ccc(C(=O)NN)cc3)c2)CC1	
> 10 µM	> 10 µM	COc1ccc2c(ccn2S(=O)(=O)c2ccc(C(=O)NN)cc2)c1	
> 10 µM	> 10 µM	NNC(=O)c1ccc(S(=O)(=O)n2ccc3cc(OCc4ccccc4)ccc32)cc1	
> 10 µM		Nc1ccccc1NC(=O)c1ccc(S(=O)(=O)n2ccc3cc(OCCCN4CCCCC4)ccc32)cc1	
> 10 µM		CCCNNC(=O)c1ccc(S(=O)(=O)n2ccc3cc(OC)ccc32)cc1	inhibition at 1 µM [4]: < 10%

SMILES	IC50 [1]	IC50 (Histone deacetylase 1 [5])	also measured
C#CCN1CCN(CCCOc2ccc3c(ccn3S(=O)(=O)c3ccc(C(=O)NNCCC)cc3)c2)CC1	> 10 µM		IC50 (Cholinesterase): 8.81 µM
